Test results reported in ChEMBL document CHEMBL1133856, “2-Aryl indole NK(1) antagonists: optimisation of the amide substituent” (Bioorg Med Chem Lett, 2001).
Values joined by “and” are separate entries in the source; they are usually repeats but may differ in a detail not shown here. Identical values can stand only once.

Legend:
[1] = target: Substance-P receptor (Homo sapiens, UniProt P25103); assay: Ability to displace [125I]-labeled substance P from human cloned Tachykinin receptor 1 in CHO cells.; format: cell-based
[2] = tested on: Gerbillinae; assay: In vivo percent inhibition of gerbil foot tapping 2 hours after iv administration of 1 mg/kg; format: functional
[3] = tested on: Gerbillinae; assay: In vivo percent inhibition of gerbil foot tapping 0 hours after iv administration of 1 mg/kg; format: functional
[4] = tested on: Gerbillinae; assay: In vivo percent inhibition of gerbil foot tapping 2 hours after iv administration of 3 mg/kg; format: functional
[5] = tested on: Gerbillinae; assay: In vivo percent inhibition of gerbil foot tapping 0 hours after iv administration of 3 mg/kg; format: functional
[6] = tested on: Gerbillinae; assay: In vivo percent inhibition of gerbil foot tapping 0 hours after iv administration at 3 mg/kg; format: functional
[7] = Steady state volume of distribution determined in rat; format: ADME, organism-based; conditions: in vivo, read-out: Vss
[8] = Maximum plasma concentration determined in rat; format: ADME, organism-based
[9] = Oral bioavailability in rat; format: ADME, organism-based; conditions: in vivo
[10] = Time for maximum plasma concentration determined in rat; format: ADME, organism-based
[11] = Plasma clearance rate determined in rat; format: ADME, organism-based
[12] = Mean residence time determined in rat; format: ADME, organism-based; conditions: in vivo, read-out: Time
[13] = Plasma half life determined in rat; format: ADME, organism-based; conditions: read-out: Time (converted)
[14] = tested on: Gerbillinae; assay: Inhibitory dose against gerbil foot tapping 2 hours after iv administration; format: functional
[15] = Half life of compound determined in rat; format: ADME, organism-based; conditions: in vivo, read-out: Time (converted)

Sequence of Substance-P receptor (P25103 whole entry): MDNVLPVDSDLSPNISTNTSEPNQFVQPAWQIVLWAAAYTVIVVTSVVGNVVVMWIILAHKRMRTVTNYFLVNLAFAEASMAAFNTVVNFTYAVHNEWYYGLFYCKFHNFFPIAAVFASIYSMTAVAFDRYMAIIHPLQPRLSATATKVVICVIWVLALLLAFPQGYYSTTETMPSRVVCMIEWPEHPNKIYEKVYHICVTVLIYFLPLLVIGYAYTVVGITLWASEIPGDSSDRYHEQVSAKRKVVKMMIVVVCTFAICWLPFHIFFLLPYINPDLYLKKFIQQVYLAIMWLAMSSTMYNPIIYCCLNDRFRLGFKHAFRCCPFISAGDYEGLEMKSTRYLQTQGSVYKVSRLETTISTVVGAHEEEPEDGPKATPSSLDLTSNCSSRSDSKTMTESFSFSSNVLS

CC(=O)C1(c2ccccc2)CCN(C(=O)CCc2c(-c3ccc(Cl)cc3)n(C)c3ccc(Cl)cc23)CC1
IC50 [1]: 0.53 nM

CN(C(=O)CN1CCN(C(=O)CCc2c(-c3ccc(Cl)cc3)n(C)c3ccc(Cl)cc23)CC1)c1ccccc1
inhibition in vivo at 1 mg/kg [2]: 6%
inhibition in vivo at 1 mg/kg [3]: 87%
IC50 [1]: 0.13 nM

Cn1c(-c2ccc(Cl)cc2)c(CCC(=O)N2CCC(Nc3ccccc3)CC2)c2cc(Cl)ccc21
IC50 [1]: 1.3 nM

Cn1c(-c2ccc(Cl)cc2)c(CCC(=O)N2CCN(C3CCCCC3)CC2)c2cc(Cl)ccc21
inhibition in vivo at 3 mg/kg [4]: 7%
IC50 [1]: 0.35 nM
inhibition in vivo at 3 mg/kg [5]: 100%

Cn1c(-c2ccc(Cl)cc2)c(CCC(=O)N2CCN(CC(C)(C)C)CC2)c2cc(Cl)ccc21
IC50 [1]: 2 nM

Cn1c(-c2ccc(Cl)cc2)c(CCC(=O)N2CCC(F)(Cc3ccccc3)CC2)c2cc(Cl)ccc21
IC50 [1]: 0.55 nM

Cn1c(-c2ccc(Cl)cc2)c(CCC(=O)N2CCC(Cc3ccccc3)CC2)c2cc(Cl)ccc21
IC50 [1]: 2.2 nM

Cn1c(-c2ccc(Cl)cc2)c(CCC(=O)N2CCN(Cc3ccccc3)CC2)c2cc(Cl)ccc21
inhibition in vivo at 3 mg/kg [4]: 17%
IC50 [1]: 0.3 nM
inhibition in vivo at 3 mg/kg [5]: 100%

CC(C)N1CCN(C(=O)CCc2c(-c3ccc(Cl)cc3)n(C)c3ccc(Cl)cc23)CC1
IC50 [1]: 13 nM

Cn1c(-c2ccc(Cl)cc2)c(CCC(=O)N2CCN(CC3CC3)CC2)c2cc(Cl)ccc21
IC50 [1]: 0.78 nM

Cn1c(-c2ccc(Cl)cc2)c(CCC(=O)N2CCN(Cc3ccccc3)C(=O)C2)c2cc(Cl)ccc21
IC50 [1]: 0.39 nM

CC(C)CCN1CCN(C(=O)CCc2c(-c3ccc(Cl)cc3)n(C)c3ccc(Cl)cc23)CC1
IC50 [1]: 0.34 nM

Cn1c(-c2ccc(Cl)cc2)c(CCC(=O)N2CCN(CC3CCCCC3)CC2)c2cc(Cl)ccc21
IC50 [1]: 2.9 nM

Cn1c(-c2ccc(Cl)cc2)c(CCC(=O)N2CCN(CC(=O)Nc3ccccc3)CC2)c2cc(Cl)ccc21
IC50 [1]: 30 nM

COc1ccccc1N1CCN(C(=O)CCc2c(-c3ccc(Br)cc3)[nH]c3ccc(C)cc23)CC1
inhibition in vivo at 3 mg/kg [6]: 46%
Vd [7]: 9.5 L/kg
Cmax [8]: 2 ng/mL
bioavailability [9]: 3%
Tmax [10]: 1.1 h
clearance [11]: 179 mL/min/kg
MRT [12]: 0.9 h
half-life [13]: 1.4 h

Cn1c(-c2ccc(Cl)cc2)c(CCC(=O)N2CCC(O)(Cc3ccccc3)CC2)c2cc(Cl)ccc21
ID50 [14]: 0.3 mg/kg and 0.9 mg/kg
Vd [7]: 3.5 L/kg
Cmax [8]: 4 ng/mL
half-life [15]: 3.1 h
bioavailability [9]: 3%
Tmax [10]: 1.2 h
MRT [12]: 1.8 h
IC50 [1]: 0.21 nM

Cn1c(-c2ccc(Cl)cc2)c(CCC(=O)N2CCC(CO)(c3ccccc3)CC2)c2cc(Cl)ccc21
IC50 [1]: 55 nM

CCC(=O)N(c1ccccc1)C1CCN(C(=O)CCc2c(-c3ccc(Cl)cc3)n(C)c3ccc(Cl)cc23)CC1
Inhibition [4]: 50%
IC50 [1]: 0.16 nM
Inhibition [5]: 100%
